Read-outs that look alike come from different tables or passages of the source.
Key:
[1] = tested on: relaxin receptors in the rat heart; test: Effect of steroid hormones on relaxin receptors in the rat heart; format: in vivo; conditions: steroid treatment 10 μg s.c.; sacrificed 7 days later
Description: For hormonal control experiments, 10-11-week-old female rats were ovariectomized for two weeks and then injected s.c. with 10 μg estradiol cyclopentyl propionate in a […] vehicle or with vehicle alone. Likewise, 10-11-week-old male rats were castrated for 2 weeks and were injected with either 10 μg estradiol cyclopentyl propionate, 10 μg testosterone, or vehicle alone. The rats were sacrificed 7 days later by asphyxiation with CO2. The relevant tissues were removed rapidly and frozen in powdered dry ice immediately.
The frozen tissues were sectioned to 16 μm thickness using a Reichert-Jung Model 2800 Frigocut cryostat (Cambridge Instruments). Tissue sections were fixed onto gelatin/chromium potassium sulfate treated microscope slides by warming, and immediately refrozen and stored at -80° C. overnight or longer.
For binding of ^32 P-relaxin to the tissue sections, frozen slides were prewashed with binding buffer (Hank's balanced salt solution supplemented with 20 mMHEPES, pH 7.2, 1 mg/ml BSA, 0.1 mM PMSF, and 1 μg/ml leupeptin) at 4° C. for 1.5-2 hours. The tissue sections were then covered with 600-700 μl of 100 pM ^32 P-relaxin with or without excess unlabeled relaxin and other competing agents as specificity control, and incubated at 4° C. for one hour. The slides were washed 3 times for 15-30 minutes each, with binding buffer. […]

rat isolated heart = test: Chronotropy and inotropy in Langendorff rat isolated heart
Description: Male Sprague-Dawley rats weighing 300-350 g (Charles River, Portage, Ind., USA) were anesthetized with 60 mg/kg pentobarbital sodium (Fort Dodge Laboratories, Inc., Fort Dodge, Iowa, USA) intraperitoneally. Following thoracotomy, the hearts were removed and placed into 4° C. […] Any associated lung and thymic tissue were trimmed off and the ascending aorta cannulated. The heart was then perfused at 10 ml/min with Krebs-Henseleit solution at 37° C. The perfusion pressure was constantly monitored. A small incision was made in the left atrium and a water-filled balloon (Hugo Sachs Electronik, March-Hugstetten, Germany) connected to a pressure transducer (Gould Electronics, Valley View, Ohio, USA) was placed into the left ventricle for the measurement of left ventricular developed pressure (LVDP). From this pressure, recording heart rate was electronically derived on a Grass polygraph (Quincy, Mass., USA).
In six experiments, after a 15-20 minutes stabilization period, the atria were removed. The heart rate was then allowed to stabilize at its new rate before the administration of relaxin. In three experiments, the atria were left intact.
Relaxin was administered as 50 μl bolus injections into the perfusion fluid immediately prior to entering the heart. Cumulative dose-response curves were constructed using human recombinant H2 relaxin (Genentech, Inc. South San Francisco, Calif., USA). […] Serial dilutions of both drugs were made using 0.9% (w/v) saline solution.
Statistical significance was determined by a two-tailed Student's unpaired t-test and P<0.005 was taken as significant.

[2] = cited from earlier work
[3] = obliterative peripheral arterial disease; cited from earlier work
rat mesocaecum venules = conditions: local application; cited from earlier work

For “estradiol cyclopentyl propionate [Estrogen]”, the “effect on relaxin binding in the heart” value [1] was “had no effect on relaxin binding in the heart”.
For `CNCC(O)c1ccc(O)c(O)c1.O=C(O)C(O)C(O)C(=O)O` (centres unmarked) [adrenaline, Adrenaline bitartrate, reference compound], the “transient increases in coronary perfusion pressure” value (rat isolated heart) was 5-10 mmHg, the “left ventricular developed pressure (LVDP)” value (rat isolated heart; intact preparations, 4.5 pMol, basal 83±4 mmHg) was 195±10 mmHg and the “duration of chronotropic effect” value (rat isolated heart; relaxin: single bolus administration of 830 pMol) was “short-lasting”.
In the case of porcine relaxin, the blood pressure ([2]; injection of up to 50 μg, anesthetized rats) is given as “did not affect blood pressure”, the arterial pressure ([2]; intracerebroventricular injection, urethane anesthetized rat) is given as “increase arterial pressure” and the arterial pressure ([2]; intravenous injection, urethane anesthetized rats) is given as “increases arterial pressure”. For the same molecule, the heart rate ([2]; intravenous or intracerebroventricular injection, urethane anesthetized rat) was “increase heart rate”, the “healing of Raynaud's lesions” value [3] was “beneficial in healing Raynaud's lesions” and the “effect on venules and vasoconstriction” value (rat mesocaecum venules) was “dilate venules and antagonized the vasoconstrictive effects of norepinephrine and promethazine”.
For `C[C@]12CC[C@H]3[C@@H](CCC4=CC(=O)CC[C@@]43C)[C@@H]1CC[C@@H]2O` [testosterone], the “effect on relaxin binding in the heart” value [1] was “did not cause any changes in relaxin binding in the heart”.
